Results reported in patent publication US20240383784A1, “ANTIMICROBIAL SYSTEM AND METHOD” (KEMIRA OYJ, priority 2021, published 2024).

Tests used:
[1] = test system: Meiothermus silvanus biofilms; experiment: Biofilm test on 96-microwell peg lids in synthetic paper machine water, Crystal Violet quantification; type: cell-based; settings: SPW; for Impact (biofilm reduction percentage): 45° C., 150 rpm
Excerpt: (§1) Pure cultures of Meiothermus silvanus, a microbe species commonly found in paper machine biofilms (Ekman J, Journal of Industrial Microbiology & Biotechnology 34:203-211) and Pseudoxanthomonas taiwanensis, another species commonly found in paper machine environments (Desjardins, E & Beaulieu, C, Journal of Industrial Microbiology & Biotechnology 30:141-145) were used to study the efficacy of various chemicals to prevent biofilm formation.
(§2) Biofilm tests were done in fibre-containing synthetic paper machine water, SPW (prepared according to Peltola, et al., J. Ind. Microbiol. Biotechnol. 38: 1719-1727) using 96-microwell plate wells with peg lids (Thermo Fischer Scientific Inc., USA). Plates were incubated at 45° C. with a rotary shaking (150 rpm) providing high flow in each well.
(§3) Wells of 96-microwell plates with peg-lids were filled with SPW and inoculated with the pure bacterial cultures. Biofilm was grown at 45° C. with a rotary shaking (150 rpm) for 24 hours without addition of any chemical compound to be tested.
(§4) After 24 hours from starting the test, the wells were emptied and a fresh solution of SPW, inoculated with the pure bacterial cultures and with different amounts of chemical compounds to be tested were added and the original peg-lid was placed back in place. After an additional 24 hours the wells were emptied and the biofilm amount on the pegs was quantified.
(§5) The amount of biofilm formed on the peg surfaces was quantified with a staining solution by adding 200 μl of 1% Crystal Violet (Merck Millipore KGaA, Germany) in methanol to each well in a clean 96-well plate and placing the biofilm-containing peg-lid on it. After 3 minutes the wells were emptied and the wells and pegs were rinsed 3 times with tap water. Finally the peg-lid was placed in a clean 96-well plate, the attached Crystal Violet was dissolved into ethanol and the absorbance at 595 nm was measured.
(§6) All parts per million (ppm) amounts given in Examples 1-2 are as active ingredients. The Impact values are calculated as biofilm reduction percentages based on a comparison with no added chemicals. A positive value indicates a reduction in amount of biofilm whereas a negative value indicates an increase in the amount of biofilm.

[2] = test system: Pseudoxanthomonas taiwanensis biofilms; experiment: as above; type: cell-based; settings: SPW; for Impact (biofilm reduction percentage): 45° C., 150 rpm
Excerpt: as §1, §2, §3, §4, §5, §6

[3] = Sodium hypochlorite 4 ppm alone
[4] = Sodium hypochlorite 8 ppm alone
[5] = on its own, up to a dosage of 8 or 16 ppm

Cc1ccc(S(=O)(=O)C=CC#N)cc1 [Compound A, 3-[(4-methylphenyl)sulphonyl]-2-propenenitrile]
Impact (biofilm reduction percentage) ([1]; Compound A 0.15 ppm alone, Table 1): 7% | Impact (biofilm reduction percentage) ([1]; Compound A 0.3 ppm alone, Table 1): −7% | Impact (biofilm reduction percentage) ([1]; Compound A 0.3 ppm alone, Table 3): −15% | Impact (biofilm reduction percentage) ([1]; Compound A 0.45 ppm alone, Table 3): 11% | biofilm reduction efficacy (in words) ([1]; at low dosages): ineffective | Impact (biofilm reduction percentage) ([2]; Compound A 0.15 ppm alone, Table 2): 5% | Impact (biofilm reduction percentage) ([2]; Compound A 0.15 ppm alone, Table 4): 19% | Impact (biofilm reduction percentage) ([2]; Compound A 0.3 ppm alone, Table 2): 7% | biofilm reduction efficacy (in words) ([2]; at low dosages): ineffective

NCl [MCA, Monochloramine]
Impact (biofilm reduction percentage) ([1]; MCA 0.5 ppm alone): −22% | Impact (biofilm reduction percentage) ([1]; MCA 1 ppm alone): 4% | Impact (biofilm reduction percentage) ([1]; MCA 1.5 ppm alone): −2% | biofilm reduction efficacy (in words) ([1]; at low dosages): ineffective | Impact (biofilm reduction percentage) ([2]; MCA 0.5 ppm alone): −11% | Impact (biofilm reduction percentage) ([2]; MCA 1 ppm alone): −3% | Impact (biofilm reduction percentage) ([2]; MCA 1.5 ppm alone): 7% | biofilm reduction efficacy (in words) ([2]; at low dosages): ineffective

OCl [Sodium hypochlorite, reference compound]
Impact (biofilm reduction percentage) ([1]; Sodium hypochlorite 2 ppm alone): −71% | Impact (biofilm reduction percentage) [1, 3]: 1% | Impact (biofilm reduction percentage) [1, 4]: 5% | biofilm reduction efficacy (in words) [1, 5]: ineffective | Impact (biofilm reduction percentage) [2, 3]: −3% | Impact (biofilm reduction percentage) [2, 4]: −5% | Impact (biofilm reduction percentage) ([2]; Sodium hypochlorite 16 ppm alone): 0% | biofilm reduction efficacy (in words) [2, 5]: ineffective
